Test results reported in article PMC7931236, “Nonclassical antagonism between human lysozyme and AMPs against Pseudomonas aeruginosa” (FEBS Open Bio, 2021).
In brackets after ≈: the same amount, converted by molar mass. Where two headings read alike, the source gives them in different places. Where a SMILES comes first, the peptide text is derived from it. Bridges are numbered along the chain shown (N, C = ends). Where no end group is shown, it is not given here.

Experiments:
[1] = test system: P. aeruginosa strain H1001
Protocol: (§1) The mucoid bioluminescent P. aeruginosa strain Xen05 was purchased from Caliper life Sciences, Inc. The nonmucoid bioluminescent strain H1001 was the kind gift of Robert Hancock (University of British Columbia, Vancouver, BC, Canada). Both strains were stored as glycerol stocks at −80 °C. Recombinant hLYS and freeze‐dried Micrococcus luteus were purchased from Sigma Millipore (Burlington, MA, USA). Protegrin 1 AMP (PTG1) and HB71 peptides (> 95% purity) were obtained from Peptide 2.0. LL‐37, Melittin, and Tet009 peptides (> 95% purity) were purchased from GenScript (Piscataway, NJ, USA). Human beta defensin 3 AMP (hBD3) peptide was purchased from AnaSpec. Peptide stock solutions were stored at −20 °C. All other reagents and materials were purchased from Fisher Scientific (Waltham, MA, USA).
(§2) We analyzed the dose–response potency of each AMP against both strains via a well‐validated luminescence assay. Hundred microlitre of exponential phase cells (5 × 10^6 cells/mL) in dextrose/tris (DT) buffer (20 mM dextrose, 100 mM Tris, pH 7.4) were incubated with a 1 : 2 dilution series of each AMP in white, flat‐bottomed, 96‐well plates at 37 °C for 4 h. Culture luminescence was then quantified by imaging with a CCD camera (Bio‐Rad ChemiDoc XRS System, Hercules, CA, USA). Measurements were normalized to the no‐treatment controls on the same plate, and potency was quantified by a 3‐parameter logistic regression of luminescence versus AMP concentration, yielding EC50 values (Fig. S1). Importantly, the luminescence of these P. aeruginosa strains is known to correlate with bacterial viability. Assays were done in technical triplicate or quadruplicate and repeated at least twice.

[2] = test system: P. aeruginosa strain Xen05
Protocol: as §1, §2

[3] = test system: P. aeruginosa strain H1001; format: cell-based, Pseudomonas aeruginosa; conditions: for Interaction with hLYS against nonmucoid strain H1001: class by FICI, checkerboard with hLYS
Protocol: (§3) Checkerboard, or 2‐D MIC, assays were performed analogous to the single agent dose–response studies above, except that 1 : 2 serial dilutions of hLYS were made across the rows of a 96‐well plate, and 1 : 2 serial dilutions of the AMP were made down the columns of the same plate, such that each well contained a unique concentration mixture of the two agents. Controls without treatment (growth control) and without bacteria (sterility control) were included on all plates. Assays were repeated as three independent trials (biological replicates), and results are the average of all measurements.
(§4) To quantify antibacterial interactions, fractional inhibitory concentrations (FIC) and FIC index values (FICI) were calculated as described elsewhere, though in this case using EC50 values in place of conventional growth/no growth visual observations. Briefly, the FIC for one agent is the ratio of its […]. The corresponding FIC values for the two agents in each row and column, respectively, of a checkerboard plate may be summed, and the lowest FIC sum on the plate is designated the FICI.
(§5) Based on the EC50 values of AMP monotherapies, we designed checkerboard assays wherein antibacterial interactions between hLYS and each AMP were quantified. Classical drug interactions such as synergy, additivity, or antagonism manifest characteristic trends across a given checkerboard assay plate, where FICI < 0.5 is defined as synergy, 0.5 ≤ FICI < 4 is defined as additivity, and FICI ≥ 4 is defined as antagonism. Nonclassical interactions, as observed in some of our checkerboard results, might include a concentration‐dependent switch from synergy (or additivity) to antagonism. In extreme cases, we observed inversion of the dose–response curves for specific combinations and concentration ranges of our antibacterial agents, as discussed below.

[4] = test system: P. aeruginosa strain Xen05; format: cell-based, Pseudomonas aeruginosa; conditions: for Interaction with hLYS against mucoid strain Xen05: class by FICI, checkerboard with hLYS
Protocol: as §3, §4, §5

[5] = Fig. S1 panels G-L, N, single agent dose response, technical triplicate or quadruplicate, repeated at least twice
[6] = single agent, luminescence, DT buffer (20 mM dextrose, 100 mM Tris, pH 7.4), 5 × 10^6 cells/mL, 37 °C, 4 h, 3-parameter logistic regression, technical triplicate or quadruplicate, repeated at least twice
[7] = Fig. S1 panels A-F, M, single agent dose response, technical triplicate or quadruplicate, repeated at least twice
[8] = AMP combined with hLYS, FIC from EC50 values (50% luminescence reduction), lowest FIC sum on plate, three independent trials

| Compound | 95% confidence intervals for EC50 values, H1001 ([1]; strain H1001, 4 h) | EC50 H1001 ([1]; strain H1001, 4 h, pH 7.4) | 95% confidence intervals for EC50 values, Xen05 ([2]; strain Xen05, 4 h) | EC50 Xen05 ([2]; strain Xen05, 4 h, pH 7.4) | Interaction with hLYS against nonmucoid strain H1001 [3] | Interaction with hLYS against mucoid strain Xen05 [4] | 95% confidence intervals for EC50 values, H1001 [1, 5] | EC50 H1001 [1, 6] | 95% confidence intervals for EC50 values, Xen05 [2, 7] | EC50 Xen05 [2, 6] | FICI H1001 [3, 8] | FICI Xen05 [4, 8] |
| --- | --- | --- | --- | --- | --- | --- | --- | --- | --- | --- | --- | --- |
| GIINTLQKYYCRVRGGRCAVLSCLPKEEQIGKCSTRGRKCCRRKK (disulfide 11-40, 18-33, 23-41 (inferred)) [hBD3] | 6.9 to 7.1 µg/mL | 7.0 µg/mL | 5.5 to 6.5 µg/mL | 6.0 µg/mL | synergy (FICI < 0.5 is defined as synergy) | additivity (0.5 ≤ FICI < 4 is defined as additivity) | – | – | – | – | – | – |
| RRWKIVVIRWRR [Tet009] | – | – | – | – | – | – | 2.5 to 2.9 µg/mL | 2.7 µg/mL | 1.4 to 1.5 µg/mL | 1.5 µg/mL | – | – |
| CC(C)C[C@H](NC(=O)[C@H](CCCNC(=N)N)NC(=O)CNC(=O)CNC(=O)[C@@H](N)CCCNC(=N)N)C(=O)N[C@H]1CSSC[C@@H](C(=O)N[C@H](C(=O)NCC(=O)N[C@@H](CCCNC(=N)N)C(=O)O)C(C)C)NC(=O)[C@H](C(C)C)NC(=O)[C@@H]2CSSC[C@H](NC(=O)[C@H](Cc3ccc(O)cc3)NC1=O)C(=O)N[C@@H](CCCNC(=N)N)C(=O)N[C@@H](CCCNC(=N)N)C(=O)N[C@@H](CCCNC(=N)N)C(=O)N[C@@H](Cc1ccccc1)C(=O)N2 [PTG‐1] (H-RGGRLCYCRRRFCVCVGR-OH; disulfide 6-15, 8-13 (inferred); N-terminus and C-terminus assumed) | 1.6 to 1.8 µg/mL | 1.7 µg/mL (≈ 0.788 µM) | 1.1 to 1.2 µg/mL | 1.1 µg/mL (≈ 0.51 µM) | synergy (FICI < 0.5 is defined as synergy) | synergy (FICI < 0.5 is defined as synergy) | – | – | – | – | – | – |
| human lysozyme [hLYS] | – | – | – | – | – | – | 700 to 1100 µg/mL | 890 µg/mL | 800 to 1200 µg/mL | 990 µg/mL | – | – |
| FAKKLAKKLKKLAKKLAK [HB71] | – | – | – | – | – | – | – | 2.6 µg/mL | 1.4 to 1.8 µg/mL | 1.6 µg/mL | – | – |
| CC[C@H](C)[C@H](NC(=O)[C@H](CCCCN)NC(=O)[C@H](CCC(=O)O)NC(=O)[C@H](CCCCN)NC(=O)[C@H](CO)NC(=O)[C@H](CCCCN)NC(=O)[C@H](CCCNC(=N)N)NC(=O)[C@H](Cc1ccccc1)NC(=O)[C@H](Cc1ccccc1)NC(=O)[C@H](CC(=O)O)NC(=O)CNC(=O)[C@H](CC(C)C)NC(=O)[C@@H](N)CC(C)C)C(=O)NCC(=O)N[C@@H](CCCCN)C(=O)N[C@@H](CCC(=O)O)C(=O)N[C@@H](Cc1ccccc1)C(=O)N[C@@H](CCCCN)C(=O)N[C@@H](CCCNC(=N)N)C(=O)N[C@H](C(=O)N[C@H](C(=O)N[C@@H](CCC(N)=O)C(=O)N[C@@H](CCCNC(=N)N)C(=O)N[C@H](C(=O)N[C@@H](CCCCN)C(=O)N[C@@H](CC(=O)O)C(=O)N[C@@H](Cc1ccccc1)C(=O)N[C@@H](CC(C)C)C(=O)N[C@@H](CCCNC(=N)N)C(=O)N[C@@H](CC(N)=O)C(=O)N[C@@H](CC(C)C)C(=O)N[C@H](C(=O)N1CCC[C@H]1C(=O)N[C@@H](CCCNC(=N)N)C(=O)N[C@H](C(=O)N[C@@H](CCC(=O)O)C(=O)N[C@@H](CO)C(=O)O)[C@@H](C)O)C(C)C)[C@@H](C)CC)C(C)C)[C@@H](C)CC [LL37] | – | – | – | – | – | – | 5.7 to 6.6 µg/mL | 6.1 µg/mL (≈ 1.36 µM) | 4.8 to 5.1 µg/mL | 5.0 µg/mL (≈ 1.11 µM) | 0.5 ± 0.2 | 0.5 ± 0.2 |
